Columns and labels:
CCD 841 CoN cells [1] = test: MultiTox-Fluor Multiplex Cytotoxicity Assay (live and dead cell fluorescence); assay type: cell-based
Procedure: The normal human diploid CCD 841 CoN cell line (ATCC® CRL-1790™) isolated from colon mucosa was obtained from American Type Culture Collection (ATCC, Manassas, VA, USA). Cells were cultured in Dulbecco’s Modified Eagle’s Medium (DMEM, Sigma-Aldrich) supplemented with fetal bovine serum (FBS; Gibco BRL, Grand Island, NY, USA) to a final concentration of 10% and maintained at 37 °C in a humidified atmosphere with 5% CO2.
In the cytotoxicity experiments, CCD 841 CoN cells were seeded in 96-well plates at an initial density of 2.0 × 10^4 cells/cm^2 and incubated for 24 h. […] Control culture contained the vehicle at the amount corresponding to the sample analyzed.
The Multitox-Fluor Multiplex Cytotoxicity Assay (Promega GmbH, Mannheim, Germany) was applied to determine the relative number of live and dead cells in the CCD 841 CoN cell cultures treated with the analyzed compounds. The assay determined live- and dead-cell protease activities using two fluorogenic peptide substrates, cell-permeant (glycyl-phenylalanyl-amino fluorocoumarin; GF-AFC) and cell-impermeant (bis-alanyl-alanyl-phenylalanyl-rhodamine 110; bis-AAF-R110). After treatment, the cells were incubated with GF-AFC and bis-AAF-R110 substrates for 60 min at 37 °C. The live- and dead-cell proteases produced AFC and R110 products, measured using a Tecan M200 Infinite microplate reader (Tecan Group Ltd., Männedorf, Switzerland) at different excitation (400 nm and 485 nm) and emission (505 nm and 520 nm) spectra. The assay was conducted according to the manufacturer’s instructions.

[2] = set-up: method as in PMID 31883991; conditions: thermo-oxidative treatment; cited from earlier work
CCD 841 CoN cells [3] = test: Cell cycle analysis by flow cytometry (propidium iodide); assay type: cell-based, human; conditions: 40 μg/mL, 24 h
Procedure: CCD 841 CoN cells were grown in 6-well plates at an initial cell density of 2 × 10^4 cells/cm^2 for 24 h under standard culture conditions. The cells were treated for 24 h with the analyzed compounds at a concentration of 40 μg/mL; the high dose was applied because of the relatively low cytotoxic potential of ST-OA and ST-LA as determined in cytotoxicity studies. In addition, the cells were exposed to 0.05 μM camptothecin (Sigma-Aldrich) as a positive reference compound known to modulate cell cycle progression.
After treatment, the cells were harvested by trypsinization, washed in PBS, and fixed in 70% ethanol. Then, the cells were stained with 50 μg/mL propidium iodide in the presence of 100 μg/mL RNase (Sigma-Aldrich). The sample preparation method and staining protocol were described previously. The cycle phase distribution was analyzed with an Amnis™ FlowSight™ flow cytometer (Luminex Corporation, TX, USA).

[4] = system: caspase 3/7 activity in CCD 841 CoN cells; test: Caspase 3/7 activity assay (APO-One Homogeneous); assay type: cell-based, human; conditions: 40 μg/mL, 24 h
Procedure: CCD 841 CoN cells were grown in black 96-well plates at an initial cell density of 2 × 10^4 cells/cm^2 for 24 h under standard culture conditions. The cell cultures were treated for 24 h with ST, ST-OA, and ST-LA at a 40 μg/mL dose. After treatment, caspase-3/7 activity was determined using the APO-One Homogeneous Caspase-3/7 Assay (Promega Corporation, Wisconsin, USA), which is based on the proteolytic cleavage of C-terminal side of aspartate residue in the DEVD peptide substrate by caspase 3/7 into fluorescent rhodamine 110 (R110). Analysis of caspase 3/7 activity was carried out following the manufacturer's instructions. Briefly, the cells after the treatment were incubated at room temperature with Apo-ONE® Caspase-3/7 Reagent—bifunctional cell lysis/caspase activity buffer combined with the pro-fluorescent caspase-3/7 substrate Z-DEVD-R110. After 4-h incubation, fluorescence was measured at an excitation wavelength of 485 nm and an emission wavelength of 530 nm using a Tecan M200 Infinite microplate reader. Data obtained were normalized to cellular protein content, quantified by BCA assay (Pierce® BCA Protein Assay Kit, Thermo Scientific Inc., USA) according to the manufacturer's protocol.

S. typhimurium TA100 = conditions: 40 μg/mL, without metabolic activation
Procedure: Potential mutagenicity or pro-mutagenicity of non-heated and heated ST, ST-LA, and ST-OA was determined using the bacterial reverse mutation assay (Ames test) with Salmonella enterica subsp. enterica ser. typhimurium tester strains TA98, TA100, and TA102, which were obtained from the Polish Collection of Microorganisms of the Institute of Immunology and Experimental Therapy of the Polish Academy of Sciences in Wroclaw.
Mutagenicity experiments were performed in the liquid pre-incubation assay, without and with metabolic activation by supplying Aroclor 1254-induced rat liver microsomal fraction (S9, Sigma-Aldrich) with NADP and cofactors for NADPH-supported oxidation, according to the procedure described by Mortelmans and Zeiger[39]. Briefly, reaction mixtures, consisting of 12-h bacterial culture, non-heated and heated compound (ST, ST-LA, ST-OA) at a concentration of 40 μg, 0.2 M phosphate buffer (pH 7.4), and alternatively S9 activating mixture, were pre-incubated at 37 °C for 20 min. […] The mutagen, 2-aminoanthracene (5 μg) (Sigma-Aldrich), was a positive control in pro-mutagenicity experiments. After pre-incubation, the reaction mixtures were added to the top agar supplemented with traces of histidine and biotin and poured onto the plates covered with minimum glucose agar. The cultures were incubated for 48 h at 37 °C, and the number of revertants (His+) colonies was counted manually.
Compounds with MI ≥ 2 can be recognized as potentially mutagenic.

CCD 841 CoN cells [5] = test: DNA synthesis, BrdU incorporation (Cell Proliferation ELISA); assay type: cell-based, human; conditions: 48 h
Procedure: CCD 841 CoN cells were grown in black 96-well plates at an initial cell density of 2 × 10^4 cells/cm^2 for 24 h under standard culture conditions. The cells were treated with ST (2.5, 5, 10, 20, and 40 μg/mL) and its esters ST-OA and ST-LA (10, 20, and 40 μg/mL) for 48 h. DNA synthesis was measured by incorporating thymidine analog 5-bromo-2′-deoxyuridine (BrdU) into newly synthesized DNA using the Cell Proliferation ELISA kit according to the protocol recommended by the manufacturer (Roche Diagnostics GmbH, Mannheim, Germany). Briefly, BrdU was added to the treated cells 24 h before the end of the exposure to the ST, ST-OA, and ST-LA (final BrdU concentration of 10 μM). After treatment, BrdU-labeled DNA was denatured (30 min, 20 °C). Then, BrdU was bonded with a peroxidase-conjugated anti-BrdU antibody (90 min, 20 °C) and reacted with the peroxidase substrate. The absorbance measurement was done with a stop solution (1 M H2SO4) at 450 nm with reference wavelength 690 nm using a Tecan M200 Infinite microplate reader.

## CC[C@H](/C=C/[C@@H](C)[C@H]1CC[C@H]2[C@@H]3CC=C4C[C@@H](O)CC[C@]4(C)[C@H]3CC[C@]12C)C(C)C [ST, Stigmasterol]
CCD 841 CoN cells [1]; 1 μg/mL, first cytotoxic effects
  decrease in the viable cell number: 10%
CCD 841 CoN cells [1]; 40 μg/mL, 48-h treatment
  reduction in number of viable cells / relative cell viability: approximately 80%
CCD 841 CoN cells [1]; 48-h treatment
  concentration at which first cytotoxic effects were observed: 1000 ng/mL
[2]
  degradation of ST molecule due to the heating process: approximately 80%
CCD 841 CoN cells [3]
  cell accumulation in G2/M phases: significant cell accumulation in the G2/M phases
[4]
  caspase 3/7 activity: Boosted caspase 3/7 activity
S. typhimurium TA100
  Mutagenic index TA100: 1.9
CCD 841 CoN cells [5]; 5 μg/mL, P = 0.028
  decrease in DNA synthesis (BrdU incorporation): 10%
CCD 841 CoN cells [5]; 40 μg/mL
  decrease in DNA synthesis (BrdU incorporation): 61%
CCD 841 CoN cells [5]
  first dose that significantly inhibited DNA synthesis: 5 µg/mL

— paper PMC10151334, “Anti-proliferative potential and oxidative reactivity of thermo-oxidative degradation products of stigmasterol and stigmasteryl esters for human intestinal cells” (Scientific Reports, 2023)
